Reference: PubChem BioAssay AID330 (DTP/NCI, 2004)
Where “and” joins values, the source holds several entries; their conditions need not be identical. Equal values may be shown once. Inconclusive results and toxic doses are left out. The calls were made as follows: active = survival T/C of 150% or more; inactive = T/C below 125% in these data. Numbered stars: 1 amine (or outer) side, 2 acyl side, 3 side chain; on linkers, the order of the positions; unused ones are H or OH. Bridge positions count the residues as written; N and C are the ends. Square brackets hold non-standard residues; d marks the D form. Peptide text beside a SMILES is read from it. I, II: the chains in the order shown. * marks the point of attachment. ξ: configuration not given here. Quinaldoyl(3-OH,6-OMe) = COc1ccc2nc(C(=O)*)c(O)cc2c1; X8 = CC(=O)OC1CC=NN([*:1])C1C(=O)[*:2]; ξNMeVal(3-OH) = CNC(C(=O)O)C(C)(C)O; X7 = O=C(C1C(O)CC=NN1[*:1])[*:2]; Sar = CNCC(=O)O

System: P388 leukemia ip, CD2F1 mice, survival T/C
Test: NCI In Vivo Anticancer Drug Screen. Data for tumor model P388 Leukemia (intraperitoneal) in CD2F1 (CDF1) mice
Conditions: endpoint: median survival time, higher = longer survival
Summary of the method: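 Mice carrying the transplanted tumor received test compound or vehicle. Survival was recorded in each group, and the value is the treated-group measurement divided by that of the vehicle-treated control group.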

[1] = dose: 50.0 mg/kg/injection, schedule: Q01DX005 (ip), vehicle: saline with Tween-80
[2] = dose: 100.0 mg/kg/injection, schedule: Q01DX005 (ip), vehicle: saline with Tween-80
[3] = dose: 200.0 mg/kg/injection, schedule: Q01DX005 (ip), vehicle: saline with Tween-80
[4] = dose: 100.0 mg/kg/injection, schedule: Q04DX003 (ip), vehicle: saline with Tween-80
[5] = dose: 60.0 mg/kg/injection, schedule: Q01DX005 (ip), vehicle: saline with Tween-80
[6] = dose: 120.0 mg/kg/injection, schedule: Q01DX005 (ip), vehicle: saline with Tween-80
[7] = dose: 240.0 mg/kg/injection, schedule: Q01DX005 (ip), vehicle: saline with Tween-80
[8] = dose: 15.0 mg/kg/injection, schedule: Q01DX005 (ip), vehicle: saline with Tween-80
[9] = dose: 30.0 mg/kg/injection, schedule: Q01DX005 (ip), vehicle: saline with Tween-80
[10] = dose: 50.0 mg/kg/injection, schedule: Q01DX005 (ip), vehicle: Klucel (hydroxypropylcellulose) (HPC)
[11] = dose: 100.0 mg/kg/injection, schedule: Q01DX005 (ip), vehicle: Klucel (hydroxypropylcellulose) (HPC)
[12] = dose: 200.0 mg/kg/injection, schedule: Q01DX005 (ip), vehicle: Klucel (hydroxypropylcellulose) (HPC)
[13] = dose: 50.0 mg/kg/injection, schedule: Q01DX009 (ip), vehicle: Klucel (hydroxypropylcellulose) (HPC)
[14] = dose: 100.0 mg/kg/injection, schedule: Q01DX009 (ip), vehicle: Klucel (hydroxypropylcellulose) (HPC)
[15] = dose: 200.0 mg/kg/injection, schedule: Q01DX009 (ip), vehicle: Klucel (hydroxypropylcellulose) (HPC)
[16] = dose: 50.0 mg/kg/injection, schedule: Q01DX009 (ip), vehicle: saline
[17] = dose: 100.0 mg/kg/injection, schedule: Q01DX009 (ip), vehicle: saline
[18] = dose: 200.0 mg/kg/injection, schedule: Q01DX009 (ip), vehicle: saline

Measured: T/C

CC(C)=CCCC(C)(OC1OC(COC2OC(CO)C(O)C(O)C2O)C(O)C(O)C1O)C1CCC2(C)C1C(O)CC1C3(C)CCC(OC4OC(CO)C(O)C(O)C4OC4OC(CO)C(O)C(O)C4O)C(C)(C)C3CCC12C (stereo unspecified)
inactive: dose: 2.0 mg/kg/injection, schedule: Q01DX009 (ip), vehicle: Klucel (hydroxypropylcellulose) (HPC) 102 % of control | dose: 4.0 mg/kg/injection, schedule: Q01DX009 (ip), vehicle: Klucel (hydroxypropylcellulose) (HPC) 95 % of control | dose: 8.0 mg/kg/injection, schedule: Q01DX009 (ip), vehicle: Klucel (hydroxypropylcellulose) (HPC) 98 % of control | dose: 16.0 mg/kg/injection, schedule: Q01DX009 (ip), vehicle: Klucel (hydroxypropylcellulose) (HPC) 93 % of control | dose: 32.0 mg/kg/injection, schedule: Q01DX009 (ip), vehicle: Klucel (hydroxypropylcellulose) (HPC) 88 % of control

COc1ccc2sc3c(C)ccc(NCC4CCCN5CCCCC45)c3c(=O)c2c1 (stereo unspecified)
inactive: [1] 95 % of control | [2] 90 % of control | [3] 90 % of control

CCCCCCN(CCCCCC)P(=O)(N1CC1)N1CC1
inactive: dose: 12.5 mg/kg/injection, schedule: Q01DX009 (ip), vehicle: saline 118 % of control | dose: 25.0 mg/kg/injection, schedule: Q04DX003 (ip), vehicle: saline with Tween-80 113 % of control | [4] 100 % of control

CCCCOC(=O)NCCCl
inactive: dose: 50.0 mg/kg/injection, schedule: Q01DX009 (ip), vehicle: saline with Tween-80 96 % of control | dose: 100.0 mg/kg/injection, schedule: Q01DX009 (ip), vehicle: saline with Tween-80 97 % of control | dose: 200.0 mg/kg/injection, schedule: Q01DX009 (ip), vehicle: saline with Tween-80 102 % of control

COC1=NC2(C)C(C)=C(c3ccccc3)C1(C)c1ccccc12 (stereo unspecified)
inactive: [5] 100 % of control | [6] 98 % of control | [7] 99 % of control

O=C([Se]c1[se]c(=[Se])[se]c1[Se]C(=O)c1ccccc1)c1ccccc1
inactive: dose: 7.5 mg/kg/injection, schedule: Q01DX005 (ip), vehicle: saline with Tween-80 97 % of control | [8] 105 % of control | [9] 105 % of control | [1] 88 % of control

c1ccc2nc3c(nc2c1)CCCC3
inactive: [10] 96 % of control | [11] 109 % of control | [12] 100 % of control

COc1ccc2c(c1)C13C(=O)OC4(C)OC(C)(CC41)C3C2=O (stereo unspecified)
inactive: dose: 100.0 mg/kg/injection, schedule: Q01DX001 (ip), vehicle: Klucel (hydroxypropylcellulose) (HPC) 98 % of control | dose: 200.0 mg/kg/injection, schedule: Q01DX001 (ip), vehicle: Klucel (hydroxypropylcellulose) (HPC) 104 % of control | dose: 400.0 mg/kg/injection, schedule: Q01DX001 (ip), vehicle: Klucel (hydroxypropylcellulose) (HPC) 95 % of control

CCN(CC)C(=S)Cl
inactive: [1] 107 % of control | [2] 106 % of control | [3] 101 % of control

O=C1C=C(Nc2ccccc2)CCC1
inactive: [4] 100 % of control | dose: 200.0 mg/kg/injection, schedule: Q04DX003 (ip), vehicle: saline with Tween-80 105 % of control | dose: 400.0 mg/kg/injection, schedule: Q04DX003 (ip), vehicle: saline with Tween-80 105 % of control

Cc1cc(Br)ccc1N1C(=O)CC(Sc2ccccc2N)C1=O (stereo unspecified)
inactive: [10] 88 % of control | [11] 95 % of control | [12] 100 % of control

COC(=O)C1=C(C(=O)OC)C2(C)NC1(C)c1c(C)ccc(C)c12
inactive: dose: 42.5 mg/kg/injection, schedule: Q01DX001 (ip), vehicle: saline with Tween-80 103 % of control | dose: 85.0 mg/kg/injection, schedule: Q01DX001 (ip), vehicle: saline with Tween-80 94 % of control | dose: 170.0 mg/kg/injection, schedule: Q01DX001 (ip), vehicle: saline with Tween-80 89 % of control

NC(CCCCNC=O)C(=O)O (stereo unspecified)
inactive: dose: 50.0 mg/kg/injection, schedule: Q01DX005 (ip), vehicle: saline 104 % of control | dose: 100.0 mg/kg/injection, schedule: Q01DX005 (ip), vehicle: saline 98 % of control | dose: 200.0 mg/kg/injection, schedule: Q01DX005 (ip), vehicle: saline 96 % of control

CCCCc1noc(N)c1SCC
inactive: [1] 105 % of control | [2] 103 % of control | [3] 107 % of control

CCOC(=O)c1ccc(NC(=O)Nc2cc(Cl)ncn2)cc1
inactive: [13] 100 % of control | [14] 99 % of control | [15] 91 % of control

COc1ccc(C2NC(C(=O)O)CS2)cc1OC (stereo unspecified)
inactive: dose: 50.0 mg/kg/injection, schedule: Q01DX009 (ip), vehicle: suspension in saline 95 % of control | dose: 100.0 mg/kg/injection, schedule: Q01DX009 (ip), vehicle: suspension in saline 95 % of control | dose: 200.0 mg/kg/injection, schedule: Q01DX009 (ip), vehicle: suspension in saline 87 % of control and 97 % of control

CCNC(=O)/N=c1/sc([N+](=O)[O-])cn1CC(=O)N1CCCCC1
inactive: dose: 100.0 mg/kg/injection, schedule: Q04DX002 (ip), vehicle: Klucel (hydroxypropylcellulose) (HPC) 100 % of control | dose: 200.0 mg/kg/injection, schedule: Q04DX002 (ip), vehicle: Klucel (hydroxypropylcellulose) (HPC) 99 % of control | dose: 400.0 mg/kg/injection, schedule: Q04DX002 (ip), vehicle: Klucel (hydroxypropylcellulose) (HPC) 98 % of control

Cc1sc2c(c1C)c(=O)[nH]c1c(C#N)c(-c3ccc(Cl)cc3)cn12
inactive: [5] 86 % of control and 90 % of control | [6] 89 % of control | [7] 94 % of control

C=C(C)c1cc(C(C)(C)C)cc(C(C)(C)O)c1S(C)(=O)=O
inactive: dose: 100.0 mg/kg/injection, schedule: Q04DX003 (ip), vehicle: Klucel (hydroxypropylcellulose) (HPC) 97 % of control | dose: 200.0 mg/kg/injection, schedule: Q04DX003 (ip), vehicle: Klucel (hydroxypropylcellulose) (HPC) 98 % of control | dose: 400.0 mg/kg/injection, schedule: Q04DX003 (ip), vehicle: Klucel (hydroxypropylcellulose) (HPC) 95 % of control

CCN(CC)CCNC(=O)Cc1cccc2c(=O)cc(-c3ccccc3)oc12
inactive: [16] 108 % of control | [17] 99 % of control | [18] 97 % of control

O=c1c(-c2ccccc2)nc2ccccc2n1CC1CCCN2CCCC[C@H]12 (stereo partly specified)
inactive: [5] 99 % of control | [6] 97 % of control | [7] 102 % of control

COc1ccc(OC)c(C(=O)C[n+]2ccccc2)c1
inactive: dose: 12.5 mg/kg/injection, schedule: Q04DX003 (ip), vehicle: saline 95 % of control | dose: 25.0 mg/kg/injection, schedule: Q04DX003 (ip), vehicle: saline 90 % of control | dose: 50.0 mg/kg/injection, schedule: Q04DX003 (ip), vehicle: saline 100 % of control

COP1(=O)CC(=O)C(C)(C)N1C (stereo unspecified)
inactive: [10] 101 % of control | [11] 107 % of control | [12] 111 % of control

CC1=C(C(=O)NCc2ccccc2)C(c2cccc([N+](=O)[O-])c2)C(C(=O)NCc2ccccc2)=C(C)N1
inactive: [8] 107 % of control | [9] 90 % of control | [5] 87 % of control

CC(C)N1CCN(c2ccncc2S(=O)(=O)N2CCCC2)CC1
inactive: [16] 87 % of control | [17] 99 % of control | [18] 97 % of control

C(=C\c1ccccc1)/CN1CCN(C(c2ccccc2)c2ccccc2)CC1
inactive: [13] 97 % of control | [14] 94 % of control | [15] 90 % of control

COc1ccc2nc(C(=O)NC3COC(=O)C(C(C)(C)O)N(C)C(=O)CN(C)C(=O)CNC(=O)C4C(OC(C)=O)CC=NN4C(=O)C(NC(=O)c4nc5ccc(OC)cc5cc4O)COC(=O)C(C(C)(C)O)N(C)C(=O)CN(C)C(=O)CNC(=O)C4C(O)CC=NN4C3=O)c(O)cc2c1 (stereo unspecified) (I: {Quinaldoyl(3-OH,6-OMe)}-S[X7]G[Sar][ξNMeVal(3-OH)] / II: {Quinaldoyl(3-OH,6-OMe)}-S[X8]G[Sar][ξNMeVal(3-OH)]; ester I:1-II:C, I:C-II:1; configuration not given here)
inactive: dose: 6.25 micrograms/kg/injection, schedule: Q01DX005 (ip), vehicle: DMSO 108 % of control | dose: 12.5 micrograms/kg/injection, schedule: Q01DX005 (ip), vehicle: DMSO 112 % of control | dose: 25.0 micrograms/kg/injection, schedule: Q01DX005 (ip), vehicle: DMSO 118 % of control | dose: 50.0 micrograms/kg/injection, schedule: Q01DX005 (ip), vehicle: DMSO 119 % of control | dose: 100.0 micrograms/kg/injection, schedule: Q01DX005 (ip), vehicle: DMSO 123 % of control
